# Reference: patent US20240336661A1, “PEPTIDES DERIVED FROM RUMINOCOCCUS TORQUES” (University of Copenhagen, priority 2021, published 2024)
# Assays:
# [1] = test system: human visceral white pre-adipocytes; test: Thermogenesis/browning gene expression in human visceral white pre-adipocytes (q-PCR); assay type: cell-based; details: 15 nM, 14 days of differentiation
# Procedure: (§1) FIG. 9. Exposure of recombinant RUCILP2 to human visceral white pre-adipocytes or murine inguinal white adipocytes causes up-regulation of the expression of genes involved in thermogenesis/browning. Upper panel: mRNA expression level of adipocyte differentiation marker genes including Ucp1, Pparγ1, Dio2, and Cox2 and brown adipocyte-selective genes including Cpt1b and Ebf2 on human white preadipocytes (HWP). Human white preadipocytes were cultured until 80% confluent and switched into differentiation media (with 0.3 ml/ml fetal calf serum, 8 ug/ml d-biotin, 0.5 ug/ml insulin, 400 ng/ml dexamethasone). The differentiation process to mature adipocytes was completed after 12-14 days. The treatment of RUCILP2 started from the third day of differentiation. Cells were harvested after 14 days of differentiation and the gene expressions were quantified by q-PCR. […] Statistical significance was determined by unpaired two-tailed Student's t test. *, p<0.05 vs 0 nM RUCILP2.
# (§2) FIG. 28. […] Cells were harvested after 14 days of differentiation and the indicated genes were quantified by q-PCR. […] Cells were harvested after 6 days of differentiation and thermogenesis gene were quantified by q-PCR. […] Cells were harvested after 4 days of differentiation and expression of myogenesis genes were quantified by q-PCR. […] Statistical significance was determined by unpaired two-tailed Student's t test, *, p<0.05 […]
# [2] = test system: murine inguinal white adipocytes; test: Thermogenesis gene expression in murine inguinal adipocytes (q-PCR); assay type: cell-based, mouse; details: mouse inguinal preadipocytes, 15 nM every other day, 6 days
# Procedure: as §1, §2
# murine C2C12 myoblasts = test: Myotube formation and myogenesis gene expression in C2C12 myoblasts; assay type: cell-based, mouse
# Procedure: FIG. 12. […] The C2C12 myotubes were treated with indicated doses of RUCILP2 overnight and myotube images were collected at magnification, ×10.
# FIG. 28. […] White preadipocytes from human visceral fat (C-12732, PromoCell) were cultured until 80% confluent and switched into differentiation media (with 0.3 ml/ml of fetal calf serum (FCS), 8 ug/ml of d-biotin, 0.5ug/ml of insulin, 400 ng/ml of dexamethasone) in the presence of 15 nM of 21-AABP2. The differentiation process to mature adipocytes was completed after 14 days. Cells were harvested after 14 days of differentiation and the indicated genes were quantified by q-PCR. Inguinal fat tissues from 6-week-old wild-type C57BL/6J female mice were dissected and washed with PBS, minced and digested for 1 hour at 37° C. in PBS containing 10 mM CaCl2, 2.4 U/ml dispase II (Roche) and 10 mg/ml collagenase D (Roche). After adding warm DMEM/F12 (1:1) with 10% FCS, digested tissue was filtered through a […] cell strainer and centrifuged at 600×g for 10 minutes. Pellet was resuspended by 40 ml DMEM/F12 (1:1) with 10% FCS and filtered through a […] cell strainer followed by centrifugation at 600×g for 10 minutes. Pelleted inguinal stromal vascular cells were grown to confluence and split onto 12-well plates. The cells were induced to differentiate by treatment with […], 0.5 mM isobutyl methyl xanthine for 2 days. After that, cells were maintained in […] for 4 days with medium change every other day. The cells were treated with 15 nM of 21-AABP2 every other day during 6 days of differentiation. Cells were harvested after 6 days of differentiation and thermogenesis gene were quantified by q-PCR. C2C12 myoblasts (CRL-1772, ATCC) were cultured until 80% confluent and switched into differentiation media (with 2% horse serum). The treatment with 21-AABP2 started from the second day of differentiation. Cells were harvested after 4 days of differentiation and expression of myogenesis genes were quantified by q-PCR. Data are presented as mean+/−SEM of one representative experiment done in biological triplicates. Statistical significance was determined by unpaired two-tailed Student's t test, *, p<0.05
# FIG. 29. […] Representative images of myoblasts (CRL-1772, ATCC) at 24h of differentiation in the presence of phosphate buffered saline (PBS, blank) or 21-AABP2 (15 nM). Presented images were from one representative experiment done in biological triplicates.
# C2C12 cells were seeded on 12-well plates under DMEM/F-12 medium (Dulbecco's Modified Eagle Medium/Nutrient Mixture F-12, Fisher Scientific, #11524436), supplemented with 10% FBS (Fetal Bovine Serum, Fisher Scientific, #11550356) and 1% Penicillin-Streptomycin (Fisher Scientific, #11548876). Cell cultures were maintained in a humidified chamber with 5% CO2 at 37° C., and culture media were changed every 2-3 days.
# At approximately 80% confluence, 10% fetal bovine serum was replaced with 2% horse serum to induce C2C12 myoblast cells to differentiate into myotubes. Twenty-four hours later (day 1 of the differentiation), the cells were treated with recombinant RUCILP2 or commercial recombinant irisin (Sigma, #SRP8039-10UG and Phoenix pharmaceuticals, #067-29A) or saline. For integrin inhibitor treatment, cells were treated with 10 μM of CycloRGDyK (Selleckchem, #S7844) for 10 minutes and washed with PBS before treated with recombinant RUCILP2 or commercial recombinant irisin or saline. At day three, the cells were refreshed with the same media as day one. After treatments for six hours on day 3, C2C12 cells were harvested for qRT-PCR analysis.
# C2C12 myoblasts were cultured until 80% confluent and switched into differentiation media (with 2% horse serum). The treatment with 21-AABP2 started from the second day of differentiation. Representative images of the formed myotubes at 24h of differentiation in the presence of PBS (blank) or 21-AABP2 (15 nM) were captured. […]
# [3] = test system: rat insulinoma INS-1 cells; test: Insulin release from INS-1 cells (ELISA); assay type: cell-based; details: 15 nM, 12 hours
# Procedure: FIG. 30. Insulin release from the immortalized rat insulinoma INS-1 cells is increased following 21-AABP2 stimulation. INS-1 cells (832/13, ThermoFisher) were grown in RPM 1640 medium until a confluency of 70% was achieved and switched to RPM 1640 medium supplied with 15 nM of 21-AABP2 and incubated for 12 hours. The insulin concentration in the supernatant of cell culture medium was measured by MSD rat/mouse insulin ELISA kit. Data are presented as mean+/−SEM of one representative experiment done in biological triplicate. Statistical significance was determined by unpaired two-tailed Student's t test, *, p<0.05.
# INS-1 cells were grown in RPMI 1640 medium (11875093, ThermoFisher Scientific) until a confluency of 70% was achieved and switched to RPMI 1640 medium supplied with 15 nM of 21-AABP2 and incubated for 12 hours. The insulin concentration in supernatant of cell culture medium was measured by MSD rat/mouse insulin ELISA kit (Merck Millipore).
substance,measurement,setting,value
"21-AABP2: 21 amino acid trypsin cleaved fragment of RUCILP2, made recombinantly in E. coli (AETTYFVEVTAVDAAGNESVK; Ruminococcus torques)",expression of genes involved in thermogenesis/browning,[1],promotes expression
same,expression of key genes regulating thermogenesis,[2],induces expression
same,myotube development,"murine C2C12 myoblasts; C2C12, 15 nM, 24h of differentiation",increases myotube development
same,"expression of genes involved in myogenesis (Mymk, Caveolin-3)","murine C2C12 myoblasts; C2C12, harvested after 4 days of differentiation",stimulates expression
same,insulin release,[3],increased
